In EP0778025A1, “Use of 8,9-dehydroestrone for the manufacture of a medicament for the treatment of diseases caused by free radicals” (AMERICAN HOME PRODUCTS CORPORATION, priority 1995, dated 1997):
Read-outs that look alike come from different tables or passages of the source.

Experiments:
[1] = tested on: porcine aortic endothelial cells (PAEC); assay: MTT cytotoxicity assay of porcine aortic endothelial cells exposed to Cu++-treated LDL; type: cell-based; details: 25 ug/ml LDL Cu++ treated in presence of compound (2.5µM stated for 8,9-dehydroestrone), 24 hr incubation, 2% viable without compound
Description: In the second test procedure, porcine aortic endothelial cells (PAEC) were exposed to LDL that had been modified as above, by exposure to Cu++ in the presence and absence of 8,9-dehydroestrone. […] Subsequent to a 24 hr incubation of the cells with the treated LDL, an MTT assay was performed to assess cytotoxicity (Hansen MB, J Immu Methods 119:203-210 (1989)). This test procedure assesses the percent of cells that are viable (live) in a given assay. In the assay, following exposure to 25 ug/ml LDL oxidized in the absence of compound, only 2% of the cells remained viable. In contrast, the percent live cells following exposure to LDL Cu++ treated in the presence of 8,9-dehydroestrone (2.5µM) was 100% or greater.

[2] = tested on: J774 macrophages; assay: Binding of Cu++-treated 125I-LDL to J774 macrophages (scavenger lipoprotein receptors); type: cell-based; details: Mus musculus
Description: In the first test procedure, radiolabeled-LDL (^125I-LDL) (McFarlane AS, In: Munro HN, Allison JB, eds. Mammalian Protein metabolism, Vol. 1. New York: Academic Press 297-341 (1964)) was modified by exposure to Cu++ in the presence and absence of 8,9-dehydroestrone. Next, J774 macrophages, which express scavenger lipoprotein receptors which bind oxidatively modified-LDL, were exposed to the treated ^125I-LDL. […] By comparison, the same concentrations of estrone reduced the binding of LDL that was oxidized by 39% and 0%, respectively. Since binding and metabolism of oxidized LDL by macrophages is though to contribute strongly to the development of foam cells and therefore, atherosclerotic plaque, this effect of reducing LDL oxidation and subsequent binding to scavenger receptors is thought to be of significant benefit.

[3] = tested on: low density lipoprotein (LDL); assay: Inhibition of Cu++ mediated LDL oxidation (TBARS method)
[4] = J774, read-out: reduction of binding of the LDL that was oxidized

SMILES | percent live cells [1] | inhibition at 0.25 µM ([2]; 0.25 µM compound present during Cu++ oxidation of 125I-LDL, J774 macrophages, read-out: reduction of binding of the LDL that was oxidized) | inhibition at 2.5 µM ([2]; 2.5 µM compound present during Cu++ oxidation of 125I-LDL, J774 macrophages, read-out: reduction of binding of the LDL that was oxidized) | IC50 ([3]; Cu++ mediated LDL oxidation, TBARS) | inhibition of LDL oxidation ([3]; maximal inhibition, stated for the test procedure in general (Cu++ or endothelial cell induced)) | inhibition at 0.25 µM [2, 4] | inhibition at 2.5 µM [2, 4]
C[C@]12CC[C@H]3C(=CCc4cc(O)ccc43)[C@@H]1CCC2=O [Equilin, reference compound] | 4% | – | – | – | – | – | –
C[C@]12CC[C@@H]3c4ccc(O)cc4CC[C@H]3[C@@H]1CCC2=O [estrone] | – | 0% | 39% | – | – | – | –
C[C@]12CCC3=C(CCc4cc(O)ccc43)[C@@H]1CCC2=O [8,9-dehydroestrone] | ≥ 100% | – | – | 220 nM | ≤ 100% | 56% | 72%
